Values quoted from earlier work as cited in patent US20100076037A1, “Methods of Treating Neuropathic Pain with Agonists of PPAR-gamma” (priority 2006, published 2010).

Experiments:
[1] = cited from earlier work
rats = details: intrathecal; cited from earlier work
PPARγ = PPARγ (Homo sapiens, UniProt P37231); details: ECV304 cell line; cited from earlier work
[2] = system: rats subjected to spinal cord injury; details: given before pioglitazone; cited from earlier work
[3] = 3 or 30 mg/kg; cited from earlier work
PPARalpha [4] = biological target: T1, PPARalpha (Homo sapiens, UniProt Q07869); details: first value of the pair given as α/γ; read-out: EC50 for PPARalpha agonism; cited from earlier work
T1 sequence (Q07869 1-468): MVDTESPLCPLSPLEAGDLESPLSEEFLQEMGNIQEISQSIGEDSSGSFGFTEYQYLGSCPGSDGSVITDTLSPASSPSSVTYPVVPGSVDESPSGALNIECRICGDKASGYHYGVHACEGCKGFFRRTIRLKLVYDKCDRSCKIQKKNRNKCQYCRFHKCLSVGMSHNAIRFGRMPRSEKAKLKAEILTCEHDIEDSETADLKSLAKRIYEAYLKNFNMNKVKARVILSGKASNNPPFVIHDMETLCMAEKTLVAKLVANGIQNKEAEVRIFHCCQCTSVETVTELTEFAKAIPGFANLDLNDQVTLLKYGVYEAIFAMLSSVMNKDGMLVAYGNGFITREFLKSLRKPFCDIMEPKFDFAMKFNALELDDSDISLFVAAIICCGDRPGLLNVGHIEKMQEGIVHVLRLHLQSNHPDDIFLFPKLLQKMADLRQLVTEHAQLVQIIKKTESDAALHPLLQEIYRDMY

PPARalpha [5] = biological target: T1, PPARalpha; details: U2 OS cells; cited from earlier work
mouse (m)PPARgamma = biological target: T2, mouse (m)PPARgamma (Mus musculus, UniProt P37238); details: U2 OS cells, mPPARgamma, cited from earlier work
T2 construct: expressed in transfected cells; host or cells: U2 OS
T2 sequence (P37238 whole entry): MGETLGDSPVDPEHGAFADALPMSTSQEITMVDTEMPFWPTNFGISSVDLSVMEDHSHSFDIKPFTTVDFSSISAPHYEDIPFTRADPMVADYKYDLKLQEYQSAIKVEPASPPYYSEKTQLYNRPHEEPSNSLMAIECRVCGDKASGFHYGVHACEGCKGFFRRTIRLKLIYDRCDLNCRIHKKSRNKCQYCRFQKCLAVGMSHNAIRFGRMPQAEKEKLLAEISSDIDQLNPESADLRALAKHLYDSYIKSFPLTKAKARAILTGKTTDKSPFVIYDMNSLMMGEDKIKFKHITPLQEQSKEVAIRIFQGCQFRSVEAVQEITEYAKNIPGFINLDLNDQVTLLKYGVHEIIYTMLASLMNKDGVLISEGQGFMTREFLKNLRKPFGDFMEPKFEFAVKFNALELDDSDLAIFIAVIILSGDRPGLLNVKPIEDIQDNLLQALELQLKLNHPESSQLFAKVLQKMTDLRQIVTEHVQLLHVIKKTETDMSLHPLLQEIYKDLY

[6] = system: multidrug resistance protein 2; details: Caco-2; cited from earlier work
P-glycoprotein = biological target: T3, P-glycoprotein (Homo sapiens, UniProt P08183); details: cited from earlier work
T3 construct: host or cells: Caco2 and MDCK-MDR1 monolayers (tie to the P-gp statement is grammatically loose)
T3 sequence (P08183 whole entry): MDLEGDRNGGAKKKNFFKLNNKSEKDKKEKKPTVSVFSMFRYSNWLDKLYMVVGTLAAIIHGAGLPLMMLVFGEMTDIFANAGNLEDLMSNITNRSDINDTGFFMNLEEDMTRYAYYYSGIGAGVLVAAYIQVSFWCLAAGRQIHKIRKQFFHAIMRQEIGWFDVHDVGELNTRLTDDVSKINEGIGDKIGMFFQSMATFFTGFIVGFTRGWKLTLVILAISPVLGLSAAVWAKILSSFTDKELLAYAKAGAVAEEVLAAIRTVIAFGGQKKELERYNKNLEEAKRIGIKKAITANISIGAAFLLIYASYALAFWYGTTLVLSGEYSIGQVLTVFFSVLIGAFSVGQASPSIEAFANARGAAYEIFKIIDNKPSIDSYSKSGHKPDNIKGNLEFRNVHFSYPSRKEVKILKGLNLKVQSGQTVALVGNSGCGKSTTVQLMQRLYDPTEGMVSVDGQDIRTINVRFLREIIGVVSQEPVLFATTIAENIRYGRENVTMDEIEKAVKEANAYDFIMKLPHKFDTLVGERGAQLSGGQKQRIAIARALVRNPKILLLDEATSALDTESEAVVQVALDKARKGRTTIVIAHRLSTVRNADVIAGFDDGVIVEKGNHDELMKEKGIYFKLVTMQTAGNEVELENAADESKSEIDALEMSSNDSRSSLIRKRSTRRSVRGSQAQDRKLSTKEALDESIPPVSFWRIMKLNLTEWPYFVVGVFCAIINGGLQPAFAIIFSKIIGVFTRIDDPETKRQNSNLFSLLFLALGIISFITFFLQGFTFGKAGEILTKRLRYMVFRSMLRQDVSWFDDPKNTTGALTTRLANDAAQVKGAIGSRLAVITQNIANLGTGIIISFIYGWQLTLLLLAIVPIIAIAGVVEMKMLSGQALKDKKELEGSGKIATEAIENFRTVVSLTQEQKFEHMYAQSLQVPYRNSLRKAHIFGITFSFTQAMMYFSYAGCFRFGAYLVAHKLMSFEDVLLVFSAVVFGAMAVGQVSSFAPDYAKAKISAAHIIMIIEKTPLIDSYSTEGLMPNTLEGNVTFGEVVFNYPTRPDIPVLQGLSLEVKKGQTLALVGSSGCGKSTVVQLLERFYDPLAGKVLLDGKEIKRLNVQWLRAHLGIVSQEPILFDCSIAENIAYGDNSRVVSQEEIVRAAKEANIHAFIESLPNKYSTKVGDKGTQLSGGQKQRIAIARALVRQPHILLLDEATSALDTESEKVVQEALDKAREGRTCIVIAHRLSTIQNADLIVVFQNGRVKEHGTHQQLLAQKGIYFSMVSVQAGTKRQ

mPPARalpha = mPPARalpha (Mus musculus, UniProt P23204); details: read-out: EC50 reporter gene assay, U2 OS cells; cited from earlier work
mPPARalpha, sequence (P23204 whole entry): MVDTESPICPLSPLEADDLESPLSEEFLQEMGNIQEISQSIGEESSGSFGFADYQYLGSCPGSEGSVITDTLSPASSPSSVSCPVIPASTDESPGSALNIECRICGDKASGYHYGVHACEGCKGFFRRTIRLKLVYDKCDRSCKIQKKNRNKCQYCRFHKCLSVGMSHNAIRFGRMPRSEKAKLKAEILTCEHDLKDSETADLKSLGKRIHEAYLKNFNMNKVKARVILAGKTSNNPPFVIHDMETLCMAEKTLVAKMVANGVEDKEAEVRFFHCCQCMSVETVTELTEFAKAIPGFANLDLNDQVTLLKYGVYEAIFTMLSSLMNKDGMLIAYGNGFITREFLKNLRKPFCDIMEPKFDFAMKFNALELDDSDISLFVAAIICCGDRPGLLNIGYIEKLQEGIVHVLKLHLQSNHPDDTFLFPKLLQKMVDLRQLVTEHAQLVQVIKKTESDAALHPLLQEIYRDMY

diabetic patients = details: human, in vivo; cited from earlier work

PPARγ, sequence (P37231 whole entry, species assumed): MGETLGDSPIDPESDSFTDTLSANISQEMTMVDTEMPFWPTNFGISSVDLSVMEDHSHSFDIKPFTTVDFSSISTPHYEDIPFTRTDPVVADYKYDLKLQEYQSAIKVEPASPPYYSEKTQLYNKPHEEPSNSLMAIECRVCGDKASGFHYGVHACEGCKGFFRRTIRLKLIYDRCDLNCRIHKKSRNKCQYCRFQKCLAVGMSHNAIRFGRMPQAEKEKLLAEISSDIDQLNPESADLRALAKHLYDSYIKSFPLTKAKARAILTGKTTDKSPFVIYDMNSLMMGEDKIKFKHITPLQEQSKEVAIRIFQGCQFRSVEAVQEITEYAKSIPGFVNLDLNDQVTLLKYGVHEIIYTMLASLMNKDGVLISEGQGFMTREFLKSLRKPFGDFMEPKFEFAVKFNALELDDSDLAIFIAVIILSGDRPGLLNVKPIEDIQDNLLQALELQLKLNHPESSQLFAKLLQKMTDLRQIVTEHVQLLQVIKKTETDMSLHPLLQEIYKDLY

With `CCCCC/C=C/C=C1/C(=O)C=C[C@@H]1C/C=C\CCCC(=O)O` [15dPGJ2] as the compound, how does the “mechanical allodynia (von Frey)” value ([1]; intrathecal, 7 days post-SNI) read?
The value was “dose-dependently reduced”.

What about the pain behavior (rats) of the same compound?
Its pain behavior is “reduction in pain behavior”.

For `CC(C)(c1ccc(OCC2CO2)cc1)c1ccc(OCC2CO2)cc1` (stereo not drawn) [BADGE, Bisphenol A diglycidyl ether], which “effect on the observed anti-allodynic effects of rosiglitazone and 15dPGJ2” value ([1]; in vivo) is on record?
The value was “reversed”.

And the PPARγ activity (PPARγ)?
Its PPARγ activity is “has PPARγ agonist activity”.

Which “effect of pretreatment on pioglitazone-induced motor function recovery” value [2] does the source give for `O=C(Nc1ccccc1)c1cc([N+](=O)[O-])ccc1Cl` [GW9662, 2-chloro-5-nitro-N-phenylbenzamide] here?
Its value is “completely abolished”.

And the “threshold (in g)” value [3]?
Its value is “increased”.

Which EC50 (PPARalpha [4]) does the source give for `Cc1oc(-c2ccccc2)nc1CCOc1ccc(CC2C(=O)NOC2=O)cc1` (stereo not drawn) [JTT-501] here?
The EC50 was 0.4 µM.

Which EC50 (PPARalpha [4]) does the source give for `CCO[C@@H](Cc1ccc(OCCN2c3ccccc3Oc3ccccc32)cc1)C(=O)O` [NNC-61-0029] here?
Its EC50 is 0.6 µM.

With `Cc1cccc(Nc2cc(Cl)nc(SCC(=O)O)n2)c1C` [WY-14643] as the compound, how does the “EC50 reporter gene assay” value (PPARalpha [5]) read?
The value was “no activity”.

And the “EC50 reporter gene assay” value (mouse (m)PPARgamma)?
The value was “no activity”.

With `CCOC(Cc1ccc(OCCc2ccc(OS(C)(=O)=O)cc2)cc1)C(=O)OC1OC(C(=O)O)C(O)C(O)C1O` (stereo not drawn) [acylglucuronide metabolite] as the compound, how does the “transport in Caco2 and MDCK-MDR1 monolayers” value [6] read?
Its value is “apparently transported by multidrug resistance protein 2”.

And the “substrate of P-glycoprotein” value (P-glycoprotein)?
Its value is “not substrates of P-glycoprotein”.

With `CC(C)(Oc1ccc(CCNC(=O)c2ccc(Cl)cc2)cc1)C(=O)O` [bezafibrate] as the compound, how does the EC50 (mouse (m)PPARgamma; read-out: EC50 reporter gene assay) read?
Its EC50 is 23 µM.

What about the EC50 (mPPARalpha) of the same compound?
The EC50 was 24 µM.

With `CCc1ccc(CCOc2ccc(CC3SC(=O)NC3=O)cc2)nc1` (stereo not drawn) [pioglitazone] as the compound, how does the rates of edema (diabetic patients) read?
Its rates of edema is 4.2%.
